Peptide text beside a SMILES is read from it.
Molecular target: T1, FBXO44^FBA (Homo sapiens, UniProt Q9H4M3)
T1 construct: we expressed and purified only this domain for all in vitro studies; 6xHis (N, cleaved yes); MBP (N, cleaved yes); made in house; host or cells: Escherichia coli Rosetta BL21 (λDE3)
T1 sequence (Q9H4M3 71-252 limits assumed): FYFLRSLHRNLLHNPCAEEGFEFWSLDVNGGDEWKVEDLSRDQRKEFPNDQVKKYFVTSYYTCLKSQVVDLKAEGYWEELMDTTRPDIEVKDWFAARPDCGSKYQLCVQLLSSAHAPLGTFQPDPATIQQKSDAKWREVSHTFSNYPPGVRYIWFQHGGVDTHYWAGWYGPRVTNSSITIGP
Test: Surface plasmon resonance, immobilized RGS2^5–16 peptide
Conditions: Biacore X100; peptide immobilized on CM5 chip by amine coupling; FBXO44^FBA analyte 0.29–75 μM, contact time 60 s; nonlinear fit of saturation binding; preliminary
From the text: However, evidence of a direct interaction between RGS2 and FBXO44 has, until now, not yet been established. Thus, we first aimed to verify that purified FBXO44 would bind the degron sequence in vitro. […] This also circumvented the issue that full-length FBXO44 (as well as all other F-box proteins) is very difficult to express in the absence of an adaptor protein, such as Skp1 ([30]). To test the ability of the FBA domain to bind the RGS2 degron specifically, a peptide corresponding to residues Met^5–Met^16 (MFLAVQHDRCPM; herein referred to as RGS2^5–16; Fig. 1A) was dotted onto a polyvinylidene difluoride (PVDF) membrane at increasing amounts (Fig. 1B). […] The membrane was then incubated with FLAG-tagged FBXO44 FBA domain (FBXO44^FBA) and subjected to immunoblotting using a FLAG antibody. […] To get an estimate of the binding affinity between FBXO44^FBA, we next performed surface plasmon resonance (SPR) with the RGS2^5–16 peptide anchored on the chip and FBXO44^FBA as the analyte.
RGS2^5–16 peptide was immobilized onto a CM5 chip (Cytiva; BR100012) using amine coupling (Cytiva; BR100557) following the manufacturer's protocol. RGS2^5–16 peptide (150 μg/ml) in 10 mM NaOAc, pH 4.0, was loaded into the Biacore X100 sample rack. […] The RU at equilibrium was subtracted from the nonspecific binding detected in Fc1 and measured for each concentration. […]

## CSCC[C@H](NC(=O)[C@@H]1CCCN1C(=O)[C@H](CCCNC(=N)N)NC(=O)[C@H](CS)NC(=O)[C@H](CC(=O)O)NC(=O)[C@H](Cc1c[nH]cn1)NC(=O)[C@H](CCC(N)=O)NC(=O)[C@@H](NC(=O)[C@H](C)NC(=O)[C@H](CC(C)C)NC(=O)[C@H](Cc1ccccc1)NC(=O)[C@@H](N)CCSC)C(C)C)C(=O)O [RGS2^5–16] (H-MFLAVQHDCRPM-OH)
  Kd: 2090 nM
